Assay results: patent publication US12269793B2, “Affinity illudofulvene conjugates” (AF Chemicals, LLC, priority 2019, dated 2025)
Read-outs that look alike come from different tables or passages of the source. Where a SMILES comes first, the peptide text is derived from it. [ ]: non-standard residue; d: D form. The star is where a group is joined. Dolaproine = CO[C@@H]([C@@H]1CCCN1)[C@@H](C)C(=O)O; Dil = CC[C@H](C)[C@H](NC)[C@@H](CC(=O)O)OC; X1 = C[C@@H](N*)[C@@H](O)c1ccccc1; NMeV = CN[C@H](C(=O)O)C(C)C

Legend:
[1] = test system: 8392B Nontarget Cell Line (hematopoietic); assay: cells; details: 48 h, read-out: Mean IC50 value
[2] = test system: MV522 Target Cell Line (lung-derived adenocarcinoma); assay: cells; details: MV522, 48 h, read-out: Mean IC50 value
[3] = test system: MV522 Target Cell Line (lung-derived adenocarcinoma); assay: cells; details: MV522, 2 h, read-out: Mean IC50 value
[4] = test system: 8392B Nontarget Cell Line (hematopoietic); assay: cells; details: 2 h
[5] = test system: 8392B Nontarget Cell Line (hematopoietic); details: read-out: Mean IC50 value, 2 hr exposure, ± SD, N = 3 unless otherwise indicated
[6] = test system: NCI 60 cell line panel; assay: NCI DTP 60 cell line screen assay; details: for Activity Value: NCI 60 cell line screen, negative = lyse tumor cells, zero = no growth, positive = slower growth
Source text: An ADC is engulfed by a tumor cell, transported to the endosomes (pH<6.0) and then into the lysozomes (pH<4). […] 4). Cancer cells can become resistant to various toxins and drugs through the development of what is termed multi-drug resistance. This process is known to occur through several different mechanisms.

[7] = test system: 8392B Nontarget Cell Line (hematopoietic); details: read-out: Mean IC50 value, 48 hr exposure, ± SD, N = 3 unless otherwise indicated
[8] = test system: MV522 Target Cell Line (lung-derived adenocarcinoma); details: MV522 target and 8392B nontarget cell line, result in words
[9] = in vitro; details: human
Source text: (§1) MCF7 over express estrogen alpha-receptors.
(§2) MCF7 cells over express estrogen alpha-receptors.

[10] = test system: MCF7 (ER positive); type: cell-based; details: MCF7 (ER positive) versus HT29 (ER negative), result in words
Source text: as §1, §2

[11] = read-out: Mean IC50 value, 8392B Nontarget Cell Line, 2 hr exposure, ± SD, N = 3 unless otherwise indicated

## C=CCCC1=C(C)C=C2C(=O)[C@](C)(O)C3(CC3)C(C)=C21 [Analog 113]
[1]
  IC50: 7.8 ± 1 µM
[2]
  IC50: 14.1 ± 3 µM
[3]
  IC50: 85 ± 0.7 µM
[4]; [11]
  IC50: > 93 µM

## CC1=C(CSc2nnnn2-c2ccc(O)cc2)C2=C(C)C3(CC3)[C@@](C)(O)C(=O)C2=C1 [Analog 154]
[5]
  IC50: > 70 µM

## COC(=O)C1=C(C(=O)OC)C23C=C(C)C1C2=C(C)C1(CC1)[C@@](C)(O)C3=O (some centres unmarked) [Analog 142]
[6]
  Activity Value: −5
  MDR Activity: Yes

## C/C(=C\c1csc(C)n1)[C@@H]1C[C@@H]2O[C@@H]2CCC[C@H](C)[C@H](O)[C@@H](C)C(=O)C(C)(C)[C@@H](O)CC(=O)O1 [Epothilone A]
[6]
  Activity Value: +31

## CC(=O)ON(C(C)=O)c1ccc(C(=O)OC[C@]2(C)C=C3C(=O)[C@](C)(O)C4(CC4)C(C)=C3C2OC(=O)c2ccc(N(OC(C)=O)C(C)=O)cc2)cc1 (some centres unmarked) [Analog 140]
[7]
  IC50: > 14 µM

## CC1=C(CO)C2=C(C)C3(CC3)[C@@](C)(O)C(=O)C2=C1 [Analog 002]
[6]
  MDR Activity: Yes
[6]; ability to actually kill tumor cells versus only inhibiting growth
  Cytotoxicity: Yes

## CC1=CC2=C(C)C3(CC3)C(C)(O)C(=NO)C2=C1 (centres unmarked) [Analog 224]
[5]
  IC50: > 200 µM
[8]
  toxicity as monotherapeutic agent: minimal toxicity
[7]
  IC50: > 130 µM

## CC[C@H](C)[C@@H]([C@@H](CC(=O)N1CCC[C@H]1[C@H](OC)[C@@H](C)C(=O)N[C@H](C)[C@@H](O)c1ccccc1)OC)N(C)C(=O)[C@@H](NC(=O)[C@@H](NC)C(C)C)C(C)C [MMAE, monomethyl auristatin E] (H-[NMeV]V[Dil][Dolaproine]-X1)
[6]
  Activity Value: +21
  MDR Activity: No
[6]; listed as MMA
  MDR Activity: not MDR active

## C=C1C[C@H]2C=Nc3cc(OCCCOc4cc5c(cc4OC)C(=O)N4CC(=C)C[C@H]4C=N5)c(OC)cc3C(=O)N2C1 [Pyrrolo-benzodiazepines]
[6]; NCI DTP 60 cell line, mean
  Mean LD50 cytotoxic: >23,000 nM

## CC(=O)OC[C@]1(C)C=C2C(=O)[C@](C)(O)C3(CC3)C(C)=C2[C@H]1OC(=O)N(C)CCN(C)C(=O)OC(C)(C)C [Analog 334]
[6]
  Activity Value: −11
  MDR Activity: Yes

## CC[C@H](C)[C@@H]([C@@H](CC(=O)N1CCC[C@H]1[C@H](OC)[C@@H](C)C(=O)N[C@@H](Cc1ccccc1)c1nccs1)OC)N(C)C(=O)[C@@H](NC(=O)[C@H](C(C)C)N(C)C)C(C)C [Dolstatin-10]
[6]; NCI DTP 60 cell line, mean
  Mean LD50 cytotoxic: >50,000 nM
  Mean TGI cytostatic: 2,680 nM
[6]; read-out: Mean GI50 inhibition, NCI DTP 60 cell line, mean
  GI50: 0.017 µM

## CC(=O)O[C@@]1(C)C(=O)C2=CC(CO)=CC2=C(C)C12CC2 [Analog 090]
[1]
  IC50: 3.8 ± 0.3 µM
[2]
  IC50: 2.9 ± 0.4 µM
[3]
  IC50: 2.5 ± 0.4 µM
[4]; [11]
  IC50: 1.6 ± 0.2 µM

## CC1=C2C(O)C(C)(C)C3CC23C(=O)C(C)(O)C12CC2 (centres unmarked) [Analog 252]
[5]
  IC50: > 380 µM
[7]
  IC50: > 380 µM

## CC1=C2C(=CC(C)(CO[Si](C)(C)C(C)(C)C)C2OC(=O)c2ccc(S(=O)(=O)F)cc2)C(=O)C(C)(O)C12CC2 (centres unmarked) [Analog 219]
[5]
  IC50: > 52 µM
[7]
  IC50: > 52 µM

## CC(=O)O[C@@H]1C2=C(C)C3(CC3)[C@@](C)(O)C(=O)C2=C[C@@]1(C)CO [Analog 371]
[6]
  Activity Value: −18
  MDR Activity: Yes

## CC1=C(CCC(=O)Oc2ccc3c(c2)CCC2C3CC[C@]3(C)C(=O)CCC23)C2=C(C)C3(CC3)[C@@](C)(O)C(=O)C2=C1 (some centres unmarked) [Analog 110]
[1]
  IC50: 25.3 ± 2.1 µM
[3]
  IC50: > 55 µM
[9]
  IC50: > 19 µM
[4]; read-out: Mean IC50 value
  IC50: > 55 µM
[10]
  preferential killing of ER positive cells: preferentially killed

## CC1=C2C(=CC(C)(C)[C@@H]2O)C(=O)[C@](C)(O)C12CC2 [Illudin M, reference compound]
[10]
  preferential killing of ER positive cells: killed both ER negative and ER positive cells to the same extent

## CC1=CC2=C(C)C3(CC3)[C@@](C)(O)C(O)C2=C1 (some centres unmarked) [Analog 129]
[1]
  IC50: 39.4 ± 9.2 µM
[2]
  IC50: 19.7 ± 1.9 µM
[3]
  IC50: > 136 µM
[4]; [11]
  IC50: > 136 µM

## CO[C@@H]1[C@H](O)CC[C@]2(CO2)[C@H]1[C@@]1(C)O[C@@H]1CC=C(C)C [Fumagillol]
[6]; NCI DTP 60 cell line, mean
  Mean LD50 cytotoxic: >50,000 nM
